In US8609413B2, “Neurons, astrocytes and oligodendrocytes differentiated from a mammalian pluripotent or neural stem cells exposed to a pyridine deriviative” (Research Development Foundation, priority 2007, dated 2013):
“Also recorded” adds a separate entry of the source.

Assays:
[1] = tested on: H1 human ES cells; assay: Neuronal differentiation of human ES cells, differentiation protocol 1; assay type: cell-based; details: vs DMSO
Description: Two different protocols were used to induce neuronal differentiation of human ES cells. In the first protocol, human ES cells were mechanically dissociated into small aggregates and plated on laminin/polyornithine coated six-well plates. Cells were cultured 2 weeks in human SR medium (DMEM F-12 supplemented with 15% knockout serum (Gibco), non-essential amino acids, penicillin and streptomycin), followed by 4 weeks in N2 medium. Compounds were added throughout these first 6 weeks. Subsequently, cells were mechanically dissociated and replated on polyornithine/laminin-coated 6 well plates. Throughout the text, this first differentiation protocol will be referred to as “differentiation protocol 1”. The second differentiation protocol was derived from previously described differentiation conditions (Nat et al., 2007). In the second differentiation protocol, undifferentiated human ES cells were mechanically dissociated into small aggregates and cultured in suspension on low-attachment six-well plates. For the first 4 days, they were cultured in neuronal induction medium (DMEM F-12, N2 supplement, penicillin and streptomycin), which was changed to simple neuronal proliferation medium (DMEM F-12, N2 supplement, 20 ng/ml bFGF, penicillin and streptomycin) for 2 additional days. […]
Immunostaining quantification. Immunostaining and nuclear staining quantifications were performed using the MetaXpress software (Molecular devices). Total neurite outgrowth was quantified using the neurite outgrowth analysis module, and total cell numbers were quantified with the count nuclei analysis module.
Phenazopyridine enhances neuronal differentiation of human ES cells. […] After 8 weeks of differentiation, the DMSO-treated cell population was highly heterogeneous as assessed by immunostaining for β3-tubulin, nestin, vimentin and GFAP. […] To quantify neuronal differentiation, the inventors chose to measure total neurite outgrowth and divided it by total cell number at different time points in three independent experiments (FIG. 7A).

[2] = tested on: H1 ES cells; assay: Real Time PCR of neural and non-neural markers during differentiation protocol 2; assay type: cell-based, human; details: 3 μM
Description: Real Time PCR. Reactions were run on an ABI Prism 7900 HT detection system (Applied Biosystems). ALAS and GusB were used as housekeeping genes. […] Sequences of the primers are shown in supplementary table.
The kinetics of emergence of neural and non-neural markers in DMSO and 3 μM phenazopyridine-treated H1 ES cells were evaluated using real time PCR. […] Expression of non-neural markers was next evaluated. […] The inventors reasoned that the persistence of these markers could be temporary and therefore investigated their expression after four weeks of differentiation.

[3] = tested on: human ES cell-derived engineered neural tissues (ENTs); assay: Three-dimensional neuronal differentiation / engineered neural tissues (ENTs) from human ES cells; assay type: cell-based; details: for number / density of rosettes in ENT: first steps of ENT formation, 1 month old ENTs; for non-neural cells / tissue within ENT (mesenchyma, dark pigmented zones), homogeneity: macroscopic view
Source text: ENTs are 3-dimensional pieces of tissues derived from embryonic stem cells (ES) which resemble certain layers of human fetal brain.
For three-dimensional neuronal differentiation, 5-10 spheres were generated as described in differentiation protocol 2 and plated on a pre-cut patch of hydrophilic polytetrafluoroethylene (PTFE) membrane (confetti, 6 mm diameter, 0.4 μm, BioCell-Interface, La Chaux-de-Fonds, Switzerland). Next, the membrane was placed in a Millicell®-CM (0.4 μm) Culture Plate Insert (Millipore) on one ml of N2 medium. The medium was changed every 2-3 days. This method has been described for tissue slices previously (Stoppini et al., 1991) and has been recently adapted to ES cell-derived neural tissue by Preynat-Seauve et al. (attached manuscript).
Next, the activity of phenazopyridine was tested on neuronal differentiation in a three-dimensional culture system.

[4] = tested on: CGR8 mouse ES cells; assay: Secondary screening assay: neuronal differentiation of mouse ES cells, total neurite outgrowth; assay type: cell-based; details: 5 days with compound in SR medium, then 4 days N2 medium without compound; vs control cells
Description: To perform the secondary screening assay, neuronal differentiation of CGR8 cells was carried out in SR medium (DMEM high glucose supplemented with 15% KO serum (Gibco), non-essential amino acids, penicillin and streptomycin). Cells were plated at 10^5 cells per 10 cm cell culture dish and maintained is SR medium for 5 days with compounds found in the primary screen. Cells were subsequently dissociated and replated at 4×10^4 cells/cm^2 in N2 medium (DMEM high glucose, N2 supplement, 10 ng/ml basic fibroblast growth factor, penicillin and streptomycin) and cultured for four additional days without compound addition. Immunostaining quantification. Immunostaining and nuclear staining quantifications were performed using the MetaXpress software (Molecular devices). Total neurite outgrowth was quantified using the neurite outgrowth analysis module, and total cell numbers were quantified with the count nuclei analysis module. For further studies, 32 compounds were selected with high Fluc/Rluc ratio. A dose-response analysis of Fluc/Rluc ratio was performed in the same conditions as used for the primary screen, using concentrations ranging from 100 nM to 100 μM. […] The amounts of neurons were quantified by calculating total neurite outgrowth identified by β3-tubulin immunoreactivity using an automated imaging system (see Methods above).

Nc1ccc(/N=N/c2ccccc2)c(N)n1 [phenazopyridine]
total neurite outgrowth divided by total cell number (efficiency of differentiation into mature neurons) ([1]; 3 μM for first 6 weeks, three independent experiments, p=0.045): always superior to DMSO-treated cells
homogeneity of cell population by immunostaining (β3-tubulin, nestin, vimentin, GFAP) ([1]; after 8 weeks of differentiation): more homogeneous, most cells being positive for nestin, β3-tubulin, and vimentin, with occasional neuronal networks
formation of neuronal networks ([1]; after 10 weeks): further neuronal networks formed
expression of Oct-4 and brachyury ([2]; 2 weeks): increased
expression of forebrain (Mash1) and ventral hindbrain (Nkx2.2, HoxB4, Olig2) markers ([2]; 2 weeks): also upregulated
expression of α-fetoprotein (AFP) ([2]; 2 weeks): did not vary between both conditions
expression of early (Pax6, nestin), intermediate (β3-tubulin, vimentin) and late (β3-tubulin, Map2) neuronal differentiation markers ([2]; 2 weeks of differentiation, vs control): upregulation
expression of the same neural markers at 4 weeks ([2]; 4 weeks of differentiation): significant differences in the expression of the same markers at 4 weeks of differentiation were not observed
downregulation of Oct4 ([2]; four weeks of differentiation): > 1000 fold
downregulation of brachyury ([2]; four weeks of differentiation): > 10 fold
downregulation of α-fetoprotein ([2]; four weeks of differentiation): > 1000 fold
quality of engineered neural tissues (ENTs) ([3]; 3 μM): substantially increased the quality
total number of neural tubes per three-dimensional culture ([3]; 2 weeks and 4 weeks of differentiation, vs control): significant increase
number / density of rosettes in ENT [3]: improved densities of rosettes
number / density of rosettes in ENT ([3]; listed as Phenazopyridine): increased the number of rosettes
non-neural cells / tissue within ENT (mesenchyma, dark pigmented zones), homogeneity ([3]; with vs without compound): decreased the incidence of cells differentiating into non-neuronal cells within ENT
non-neural cells / tissue within ENT (mesenchyma, dark pigmented zones), homogeneity ([3]; with vs without compound, listed as phenazopridine): displayed less mesenchyma (FIG. 3) and fewer dark pigmented zones; also recorded: more homogenous and appeared to contain a reduced amount of non-neural cells
cartilage by immunofluorescent staining of tenascin C in ENTs ([3]; with vs without compound): cartilage was not observed
total neurite outgrowth identified by β3-tubulin immunoreactivity [4]: increase of total neurite outgrowth as compared to control cells
